Counter-ions that a name gives are not always drawn.
Target: T1, human histamine H4 receptor (Homo sapiens, UniProt Q9H3N8)
T1 construct: expressed in transfected cells; host or cells: SK-N-MC cells or COS7 cells, transiently transfected; cell membranes used
Assay: Binding Assay on Recombinant Human Histamine H4 Receptor
Details: not given
In short: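 Membranes from SK-N-MC or COS7 cells transiently transfected with human H4 receptor were incubated with ³H-histamine (5-70 nM); nonspecific binding defined with 10,000 nM histamine. Bound radioactivity collected by GF/C filtration and scintillation counting; test compounds assessed by displacement of ³H-ligand binding across concentrations.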

T1 sequence (Q9H3N8 whole entry): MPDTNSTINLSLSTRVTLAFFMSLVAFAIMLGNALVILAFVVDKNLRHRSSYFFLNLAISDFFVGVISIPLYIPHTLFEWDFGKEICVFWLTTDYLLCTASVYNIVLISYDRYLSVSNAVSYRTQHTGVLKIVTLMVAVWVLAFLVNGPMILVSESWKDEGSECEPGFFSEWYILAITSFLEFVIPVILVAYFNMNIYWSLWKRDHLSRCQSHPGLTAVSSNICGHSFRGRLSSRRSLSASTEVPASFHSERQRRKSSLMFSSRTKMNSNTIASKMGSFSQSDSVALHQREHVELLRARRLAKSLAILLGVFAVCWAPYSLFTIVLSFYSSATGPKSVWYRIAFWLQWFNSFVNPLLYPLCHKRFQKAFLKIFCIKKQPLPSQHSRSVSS

How did the Ki turn out when `Nc1nc(N2CC3CCNC3C2)c2oc3ccc(F)cc3c2n1` (stereo not drawn) [Example 71, 8-Fluoro-4-(hexahydro-pyrrolo[3,4-b]pyrrol-5-yl)-benzo[4,5]furo[3,2-d]pyrimidin-2-ylamine trifluoroacetic acid salt] was run?
The Ki was 7.8 nM.

Which Ki does the source give for `Nc1nc(N2C[C@@H]3C[C@H]2CN3)c2sc3ccc(Cl)cc3c2n1` [Example 68, (S,S)-8-Chloro-4-(2,5-diaza-bicyclo[2.2.1]hept-2-yl)-benzo[4,5]thieno[3,2-d]pyrimidin-2-ylamine trifluoroacetic acid salt] here?
The Ki was 840 nM.

For `Nc1nc(N2CCN3CCCC3C2)c2oc3ccc(Cl)cc3c2n1` (stereo not drawn) [Example 69, 8-Chloro-4-(hexahydro-pyrrolo[1,2-a]pyrazin-2-yl)-benzo[4,5]furo[3,2-d]pyrimidin-2-ylamine trifluoroacetic acid salt], which Ki is on record?
The Ki was 15 nM.

How did the Ki turn out when `Nc1nc(N2CC3CCCNC3C2)c2sc3ccc(Br)cc3c2n1` (stereo not drawn) [Example 45, 8-Bromo-4-(octahydro-pyrrolo[3,4-b]pyridin-6-yl)-benzo[4,5]thieno[3,2-d]pyrimidin-2-ylamine hydrochloride salt] was run?
The Ki was 4.8 nM.

Same assay, conditions: competition binding with 3H-histamine (5 nM), membranes of SK-N-MC or COS7 cells expressing human H4 receptor; Cheng-Prusoff, KD 5 nM; average of results obtained; read-out: Ki

How did the Ki turn out when `C=CCNc1nc(N2CCN(C)CC2)c2oc3ccc(Cl)cc3c2n1` [Example 121, Allyl-[8-chloro-4-(4-methyl-piperazin-1-yl)-benzo[4,5]furo[3,2-d]pyrimidin-2-yl]-amine] was run?
The Ki was 220 nM.

Which Ki does the source give for `CN1CCCN(c2nc(N)nc3c2oc2ccc(Cl)cc23)CC1` [Example 10, 8-Chloro-4-(4-methyl-[1,4]diazepan-1-yl)-benzo[4,5]furo[3,2-d]pyrimidin-2-ylamine] here?
Its Ki is 0.74 nM.

How did the Ki turn out when `OCCNc1nc(N2CCNCC2)c2oc3ccc(Cl)cc3c2n1` [Example 160, 2-(8-Chloro-4-piperazin-1-yl-benzo[4,5]furo[3,2-d]pyrimidin-2-ylamino)-ethanol] was run?
The Ki was greater than 10000 nM.

With `Nc1nc(N2CCNCC2)c2oc3ccc(F)c(F)c3c2n1` [Example 146, 8,9-Difluoro-4-piperazin-1-yl-benzo[4,5]furo[3,2-d]pyrimidin-2-ylamine trifluoroacetic acid salt] as the molecule, how does the Ki read?
The Ki was 1280 nM.

With `COc1ccc2oc3c(N4CCN(C)CC4)nc(N)nc3c2c1` [Example 89, 8-Methoxy-4-(4-methyl-piperazin-1-yl)-benzo[4,5]furo[3,2-d]pyrimidin-2-ylamine trifluoroacetic acid salt] as the molecule, how does the Ki read?
The Ki was 12 nM.

For `Nc1nc(N2C[C@@H]3C[C@H]2CN3)c2oc3cccc(C(F)(F)F)c3c2n1` [Example 94, (S,S)-4-(2,5-Diaza-bicyclo[2.2.1]hept-2-yl)-9-trifluoromethyl-benzo[4,5]furo[3,2-d]pyrimidin-2-ylamine citrate salt], which Ki is on record?
The Ki was 880 nM.

With `Nc1nc(N2CC(N)C2)c2oc3cccc(F)c3c2n1` [Example 138, 4-(3-Amino-azetidin-1-yl)-9-fluoro-benzo[4,5]furo[3,2-d]pyrimidin-2-ylamine trifluoroacetic acid salt] as the molecule, how does the Ki read?
Its Ki is greater than 10000 nM.

With `CN[C@H]1CCCN(c2nc(N)nc3c2oc2ccc(Cl)cc23)C1` [Example 74, (S)-8-Chloro-4-(3-methylamino-piperidin-1-yl)-benzo[4,5]furo[3,2-d]pyrimidin-2-ylamine citrate salt] as the molecule, how does the Ki read?
Its Ki is 216 nM.

For `COc1cccc2oc3c(N4C[C@@H]5C[C@H]4CN5)nc(N)nc3c12` [Example 85, (S,S)-4-(2,5-Diaza-bicyclo[2.2.1]hept-2-yl)-9-methoxy-benzo[4,5]furo[3,2-d]pyrimidin-2-ylamine trifluoroacetic acid salt], which Ki is on record?
The Ki was greater than 10000 nM.

`NCC1CCN(c2nc(N)nc3c2oc2ccc(Cl)cc23)C1` (stereo not drawn) [Example 29, 4-(3-Aminomethyl-pyrrolidin-1-yl)-8-chloro-benzo[4,5]furo[3,2-d]pyrimidin-2-ylamine trifluoroacetic acid salt] was tested. Which Ki did it give?
The Ki was 140 nM.

Which Ki does the source give for `CN[C@@H]1CCN(c2nc(N)nc3c2sc2cc(C(F)(F)F)ccc23)C1` [Example 52, (R)-4-(3-Methylamino-pyrrolidin-1-yl)-7-trifluoromethyl-benzo[4,5]thieno[3,2-d]pyrimidin-2-ylamine trifluoroacetic acid salt] here?
Its Ki is 120 nM.

How did the Ki turn out when `NCC1CN(c2nc(N)nc3c2oc2ccc(Cl)cc23)C1` [Example 103, 4-(3-Aminomethyl-azetidin-1-yl)-8-chloro-benzo[4,5]furo[3,2-d]pyrimidin-2-ylamine trifluoroacetic acid salt] was run?
The Ki was 3.4 nM.

`Nc1nc(N2C[C@@H]3C[C@H]2CN3)c2oc3ccc(Cl)c(Cl)c3c2n1` [Example 98, (S,S)-8,9-Dichloro-4-(2,5-diaza-bicyclo[2.2.1]hept-2-yl)-benzo[4,5]furo[3,2-d]pyrimidin-2-ylamine trifluoroacetic acid salt] was tested. Which Ki did it give?
The Ki was greater than 10000 nM.

Which Ki does the source give for `Nc1nc(N2CCC(N)C2)c2oc3ccccc3c2n1` (stereo not drawn) [Example 21, 4-(3-Amino-pyrrolidin-1-yl)-benzo[4,5]furo[3,2-d]pyrimidin-2-ylamine trifluoroacetic acid salt] here?
The Ki was 5.7 nM.

`CN(C)[C@H]1CCCN(c2nc(N)nc3c2oc2ccc(Cl)cc23)C1` [Example 75, (S)-8-Chloro-4-(3-dimethylamino-piperidin-1-yl)-benzo[4,5]furo[3,2-d]pyrimidin-2-ylamine trifluoroacetic acid salt] was tested. Which Ki did it give?
The Ki was 650 nM.

`Nc1nc(N2C[C@@H]3C[C@H]2CN3)c2oc3ccc(C(F)(F)F)cc3c2n1` [Example 143, (S,S)-4-(2,5-Diaza-bicyclo[2.2.1]hept-2-yl)-8-trifluoromethyl-benzo[4,5]furo[3,2-d]pyrimidin-2-ylamine citrate salt] was tested. Which Ki did it give?
Its Ki is 270 nM.

With `CC(C)N1CCN(c2nc(N)nc3c2oc2ccc(Cl)cc23)CC1` [Example 34, 8-Chloro-4-(4-isopropyl-piperazin-1-yl)-benzo[4,5]furo[3,2-d]pyrimidin-2-ylamine trifluoroacetic acid salt] as the molecule, how does the Ki read?
The Ki was 240 nM.

With `CN1CCN(c2nc(N)nc3c2sc2cc(C(F)(F)F)ccc23)CC1` [Example 54, 4-(4-Methyl-piperazin-1-yl)-7-trifluoromethyl-benzo[4,5]thieno[3,2-d]pyrimidin-2-ylamine trifluoroacetic acid salt] as the molecule, how does the Ki read?
The Ki was 440 nM.

Which Ki does the source give for `Nc1nc(N2CCC[C@H](N)C2)c2oc3ccc(C(F)(F)F)cc3c2n1` [Example 141, (S)-4-(3-Amino-piperidin-1-yl)-8-trifluoromethyl-benzo[4,5]furo[3,2-d]pyrimidin-2-ylamine trifluoroacetic acid salt] here?
The Ki was 43 nM.

With `C[C@H]1CN(c2nc(N)nc3c2oc2ccc(Cl)cc23)CCN1` [Example 133, (S)-8-Chloro-4-(5-methyl-piperazin-1-yl)-benzo[4,5]furo[3,2-d]pyrimidin-2-ylamine trifluoroacetic acid salt] as the molecule, how does the Ki read?
Its Ki is 5.7 nM.

For `Nc1nc(N2CC3CNCC3C2)c2oc3ccc(Cl)cc3c2n1` (stereo not drawn) [Example 27, 8-Chloro-4-(hexahydro-pyrrolo[3,4-c]pyrrol-2-yl)-benzo[4,5]furo[3,2-d]pyrimidin-2-ylamine trifluoroacetic acid salt], which Ki is on record?
Its Ki is 110 nM.

For `CN1CCN(c2nc(N(C)C)nc3c2oc2ccc(Cl)cc23)CC1` [Example 163, [8-Chloro-4-(4-methyl-piperazin-1-yl)-benzo[4,5]furo[3,2-d]pyrimidin-2-yl]-dimethyl-amine], which Ki is on record?
The Ki was 718 nM.

Which Ki does the source give for `Nc1nc(N2CC[C@@H](N)C2)c2oc3ccccc3c2n1` [Example 108, (R)-4-(3-Amino-pyrrolidin-1-yl)-benzo[4,5]furo[3,2-d]pyrimidin-2-ylamine] here?
Its Ki is 2.6 nM.

Reference: patent US8030321B2, “Benzofuro- and benzothienopyrimidine modulators of the histamine H4 receptor” (Janssen Pharmaceutica, NV, priority 2006, dated 2011)
